The source of these data is patent publication US20230365558A1, “TETRAHYDROISOQUINOLINE DERIVATIVE AND USE THEREOF” (MEDSHINE DISCOVERY INC., priority 2020, published 2023).

As a reminder, the IC50 is the concentration needed to halve the response being measured. Usually AUC stands for concentration integrated over time. Read a low AUC as less exposure. A word on the clearance: it is a measure of how efficiently the substance is removed, as volume per time. Read a low clearance as a low capacity for elimination. Usually half-life stands for the time needed for the level to fall by half in the phase considered. High values mean slow loss, low ones fast loss. The term bioavailability denotes the share of a dose that reaches the circulation, judged against a reference dose that is usually intravenous. Lower therefore signals little systemic uptake.

Read-outs that look alike come from different tables or passages of the source.

The nature of series [1]: Pharmacokinetic evaluation in CD-1 mice. The method, then:
Experimental objective: To study the pharmacokinetic parameters of the compounds in CD-1 mice
Animal experimental design: Male CD-1 mice (28.08 to 29.01 g, 6 to 7 weeks old), purchased from Shanghai Family Planning Research Institute, n=2/group, 4 mice in total; blood collection time points (h): 0.083 (intravenous injection only), 0.25 (intragastric administration only), 0.5, 1, 2, 4, 8, 10 and 24; compound dose by tail vein injection: 1 mg/kg; single dose by intragastric administration: 5 mg/kg; intravenous and intragastric administration vehicles: 20% N,N-dimethylacetamide aqueous solution, 20% hydroxypropyl-β-cyclodextrin aqueous solution, 5% DMSO/50% PEG400/45% water for injection or 10% Solutol/30% PEG400/60% water for injection. All animals had free access to water during the experiment, fasted overnight before administration, and resumed food supply 4 hours after administration. The entire animal experiment complied with the Institutional Animal Care and Use Committee (IACUC) animal welfare.
Sample collection and storage: After administration, approximately 0.03 mL of blood was collected from the saphenous vein of the mouse at each time point into a pre-frozen commercial EDTA-K2 tube, and placed on wet ice until centrifugation. Blood samples were centrifuged at 4° C., 3,200 g for 10 min. Plasma was collected separately, transferred to a pre-labeled 96-well plate, fast frozen on dry ice, and stored at −70±10° C. until LC-MS/MS analysis.
Pre-treatment of plasma samples: 3 μL of unknown, standard curve, QC, diluted QC and single and double blank samples were taken and placed in 1.5 mL tubes, and 60 μL of internal standard solution (internal standard: Labetalol 100 ng/mL acetonitrile solution, double blank with the same volume of pure acetonitrile) was added. The samples were vortexed for at least 15 seconds, and centrifuged at 4° C., 12,000 g for 15 min. 50 μL of the supernatant was taken and placed on a clean 96-well plate, and 200 μL of 70% acetonitrile was added. The plate was vortex at 800 rpm for 10 min, and centrifuged at 4° C., 3,220 g for 5 min. 2.0 μL of the supernatant was taken for LC-MS/MS analysis. 10-fold sample dilution procedure: 2 μL of the sample was added to 18 μL of blank matrix; 2-fold sample dilution procedure: 2 μL of the sample was added to 2 μL of blank matrix. Plasma was processed in the same manner as undiluted samples. The linear range was 4.00 to 6000 nM. Plasma concentrations would be analyzed with Triple Quad 6500 Plus, and pharmacokinetic parameters would be calculated with Phoenix WinNonlin 6.3.

The subject of series [2] is MDA-MB-468 human breast cancer cells. Kind of series: Anti-proliferative activity on MDA-MB-468 cells (CellTiter-Glo, 7 days). As to conditions: read-out: IC50 (nM), in vitro anti-proliferative activity on MDA-MB-468 tumor cells. In kind it is cell-based. The method, then:
CellTiter-Glo (chemiluminescent cell viability detection reagent, purchased from Promega).
MDA-MB-468 cells were planted in a white 384-well plate with 40 μL of cell suspension per well, which contained 1000 MDA-MB-468 cells. The cell plate was cultured in a CO2 incubator overnight. […] 78 μL of culture medium was added to a middle plate, and then 2 μL of gradient diluted compound per well was transferred to the middle plate according to the corresponding position. After being thoroughly mixed, 10 μL per well was transferred to the cell plate. […] The cell plate was cultured in a CO2 incubator for 7 days. Another cell plate was prepared, and the signal value was read on the day of administration as the maximum value (Max value in the equation below) to participate in data analysis. 10 μL of chemiluminescent cell viability detection reagent per well was added to the cell plate, and the plate was incubated at room temperature for 10 min to stabilize the luminescent signal. A multi-label analyzer was used for reading. After the incubation of the cell plate with the compound was completed, 10 μL of chemiluminescent cell viability detection reagent per well was added to the cell plate, and the plate was incubated at room temperature for 10 min to stabilize the luminescent signal. A multi-label analyzer was used for reading.

In the next series the target is PRMT5 enzyme (Homo sapiens (Human), UniProt O14744). Kind of series: PRMT5 enzyme inhibitory activity assay (LANCE Ultra TR-FRET). In kind it is biochemical. The method, then: Experimental objective: To test the inhibitory effect of compounds on PRMT5 enzyme activity
Experimental materials: PRMT5 enzyme
The plate was incubated at 25° C. for 30 min, then added with substrate, and reacted at 25° C. for 90 min. After 90 min, the detection reagent was added to the 384-well plate using PerkinElmer LANCE Ultra TR-FRET standard method to combine with the enzyme-substrate reaction product. […] Raw data were used to calculate the inhibition rate of the test compounds using the following equation: […]
(§1) The inhibition rates were imported into Excel separately to calculate the inhibition rates of compounds at different concentrations, and then XLfit software was used to plot inhibition curves and calculate relevant parameters, including minimum inhibition rate, maximum inhibition rate and IC50.

Series [3] concerns Z-138 non-Hodgkin's lymphoma cells. Kind of series: In vitro anti-proliferation assay of Z-138 cells (CellTiter-Glo, 6 days). In kind it is cell-based, human. As to conditions: read-out: IC50 (nM), in vitro anti-proliferative activity on Z-138 tumor cells. Here is the method:
The plate was incubated at 37° C., CO2 and 100% relative humidity for 6 days. Samples were processed using Promega CellTiter-Glo Luminescent Cell Viability Assay Kit (Promega-G7571) standard method, and the luminescent signal was detected on a TECAN Spark®10M plate reader. Raw data were used to calculate the inhibition rate of the test compounds using the following equation: […]
as §1

The subject of series [4] is human mantle cell lymphoma Z-138 cells. As to conditions: Z-138 xenograft; for T/C (%) (Day 21) / TGI (%) (Day 21): 80 mg/kg PO BID × 21, Day 21; for RTV (Day 21) / Tumor volume (Day 21): 80 mg/kg PO BID × 21, Day 21, Mean ± SEM; for Tumor volume (Day 21) / Tumor volume (Day 0): n = 6; for Tumor volume (Day 0): Day 0 (at grouping), Mean ± SEM.
The nature of series [5]: Hygroscopicity by dynamic vapor sorption (DVS). In kind it is physicochemical. Conditions: 25° C./80% RH. Here is the method: (3) Dynamic Vapor Sorption (DVS) Method
Detailed DVS instrument information and parameters are shown in Table 5, and the classification of hygroscopicity evaluation is shown in Table 6:
Instrument: SMS DVS intrinsic Dynamic Vapor Sorption. The crystal form A of compound 46a (about 10 mg) was taken and placed in a DVS sample tray for testing.

The subject of series [6] is human breast cancer MDA-MB-468 cells. Description: Subcutaneous xenograft tumor BALB/c mouse model of human breast cancer MDA-MB-468 cells. Conditions: MDA-MB-468 xenograft. In kind it is in vivo. The method, then: Experimental materials: 6 to 8 weeks old Balb/c female mice
Routine digestion with trypsin-EDTA was performed twice a week for passaging.
Group administration was started when the average tumor volume reached 130 mm^3.

Setting [7] is: CD-1 mice, injection administration (1 mg/kg).
Setting [8] is: CD-1 mice, oral administration (5 mg/kg).
Where [9] appears, read: male, CD-1, mouse, in vivo, iv, 1 mg/kg.
Setting [10] is: male, CD-1, mouse, in vivo, po, 5 mg/kg.
[11] abbreviates: 100 mg/kg PO BID × 4 W, Day 28, Mean ± SEM.

Sequence of PRMT5 enzyme (O14744 whole entry): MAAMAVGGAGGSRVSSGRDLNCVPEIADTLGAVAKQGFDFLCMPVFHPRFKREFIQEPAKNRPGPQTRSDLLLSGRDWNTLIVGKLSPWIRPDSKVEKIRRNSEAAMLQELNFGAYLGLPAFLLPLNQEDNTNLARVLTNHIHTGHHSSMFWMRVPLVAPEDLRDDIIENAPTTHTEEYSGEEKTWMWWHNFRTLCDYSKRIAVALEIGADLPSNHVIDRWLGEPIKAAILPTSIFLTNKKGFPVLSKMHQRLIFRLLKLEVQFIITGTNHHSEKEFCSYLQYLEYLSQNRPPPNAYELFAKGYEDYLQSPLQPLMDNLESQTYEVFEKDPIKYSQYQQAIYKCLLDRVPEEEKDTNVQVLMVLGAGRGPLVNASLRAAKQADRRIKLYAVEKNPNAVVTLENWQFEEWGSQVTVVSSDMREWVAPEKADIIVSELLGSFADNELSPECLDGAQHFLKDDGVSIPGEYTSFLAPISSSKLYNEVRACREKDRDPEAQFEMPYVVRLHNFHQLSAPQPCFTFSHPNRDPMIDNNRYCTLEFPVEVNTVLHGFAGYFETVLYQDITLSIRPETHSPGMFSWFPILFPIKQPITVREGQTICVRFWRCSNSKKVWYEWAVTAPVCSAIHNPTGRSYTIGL
Sequence of PRMT5 enzyme (Q9BQA1 whole entry partner): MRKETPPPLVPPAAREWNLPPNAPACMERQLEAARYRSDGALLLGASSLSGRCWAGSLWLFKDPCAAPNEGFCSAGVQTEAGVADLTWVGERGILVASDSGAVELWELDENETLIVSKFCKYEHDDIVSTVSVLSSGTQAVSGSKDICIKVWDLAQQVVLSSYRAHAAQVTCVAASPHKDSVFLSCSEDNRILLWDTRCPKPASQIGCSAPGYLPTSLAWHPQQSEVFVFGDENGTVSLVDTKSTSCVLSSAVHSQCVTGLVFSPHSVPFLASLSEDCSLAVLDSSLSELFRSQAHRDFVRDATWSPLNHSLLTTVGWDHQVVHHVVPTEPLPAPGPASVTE

Take `O=C(NC[C@H](O)CN1CCc2ccccc2C1)c1cnc2c(c1)NC(=O)C1(CC1)C2` [Compound 39]: in series [1] (setting [7]), the “Clearance rate CL” value amounted to 2.02 L/h/kg, the “Concentration integral AUC” value is 1214 nM·h and the “Half-life T1/2” value amounted to 33 min. In series [1] (setting [8]), the “Bioavailability F” value was 20.0% and the “Concentration integral AUC” value was 1208 nM·h. In addition, the IC50 in series [2] was determined as 12 nM. Also, the midpoint of inhibition against PRMT5 enzyme, the IC50, lay at 34 nM. For the same molecule, the IC50 in series [3] amounted to 12 nM. Besides, in series [4], the “T/C (%) (Day 21)” value turned out to be 12.1%, the “TGI (%) (Day 21)” value is 94.8%, the “RTV (Day 21)” value was 1.66 + 0.42 and the “Tumor volume (Day 21)” value is 179 + 42 mm^3. For the same molecule, the “Tumor volume (Day 0)” value in series [4] turned out to be 108 ± 7 mm^3.

`C[C@H](NC(=O)c1cnc2c(c1)NC(=O)C1(CC1)O2)[C@H](O)CN1CCc2ccccc2C1` [crystal form A of compound 46a]: in series [5], the Hygroscopicity classification result is given as “slightly hygroscopic” and the “moisture absorption weight gain ΔW %” value was found to be 0.8%.

For the molecule `O=C(NC[C@H](O)CN1CCc2ccccc2C1)c1ccc2c(c1)NC(=O)[C@H]1C[C@@H]21` [Compound 49b], the 50% inhibitory concentration (IC50) in series [2] stood at 4.2 nM; against PRMT5 enzyme, 26.2 nM; in series [3], 13.1 nM.

For the molecule `O=C(NC[C@H](O)CN1CCc2ccccc2C1)c1cnc2c(c1)NC(=O)C1(CC1)O2` [Compound 8], in series [1] (setting [9]), the area under the curve (AUC) is 875 nM·h, the clearance turned out to be 3.2 L/h/kg and the half-life is 54.6 min. Also, in series [1] (setting [10]), the AUC is 1030 nM·h and the bioavailability came out at 24.5%. The IC50 in series [2] (Homo sapiens, 168 h) was found to be 12 nM. The molecule also showed an IC50 against PRMT5 enzyme of 15 nM. The IC50 in series [3] (Homo sapiens, Z-138, 144 h) was found to be 10 nM.

For `C[C@H](NC(=O)c1cnc2c(c1)NC(=O)C1(CC1)O2)[C@H](O)CN1CCc2ccccc2C1` [Compound 46a], in series [6] (100 mg/kg PO BID × 4 W, Day 28), the “T/C (%)” value came to 33.29% and the “TGI (%)” value is reported as 107.01%. In addition, in series [6] (setting [11]), the “RTV (Day 28)” value is given as 0.88 ± 0.06 and the “Tumor volume (Day 28)” value was found to be 115 ± 13.8 mm^3. The “Tumor volume (Day 0)” value in series [6] (Day 0 (at grouping), Mean ± SEM) amounted to 130 ± 10.5 mm^3. Moreover, the IC50 in series [2] (Homo sapiens, 168 h) came out at 5 nM. Also, the midpoint of inhibition on PRMT5 enzyme, the IC50, lay at 58 nM. The IC50 in series [3] (Homo sapiens, Z-138, 144 h) worked out at 11 nM. Further, in series [4], the “T/C (%) (Day 21)” value stood at 1.7%, the “TGI (%) (Day 21)” value worked out at 105.8%, the “RTV (Day 21)” value is given as 0.24 + 0.11 and the “Tumor volume (Day 21)” value is 27 + 13 mm^3. The “Tumor volume (Day 0)” value in series [4] is 107 ± 8 mm^3.
